The values that follow come from patent US20220009914A1, “Analogs of Nitrofuran Antibiotics to Combat Resistance” (The Trustees of Indiana University, priority 2020, published 2022).

Like-named read-outs stand apart in the source and are kept apart here. Where only a bound is given, the exact number is not on record here.

The target in one assay is T1, native rhodanese (Bos taurus, UniProt P00586).
T1 sequence (P00586 1-297): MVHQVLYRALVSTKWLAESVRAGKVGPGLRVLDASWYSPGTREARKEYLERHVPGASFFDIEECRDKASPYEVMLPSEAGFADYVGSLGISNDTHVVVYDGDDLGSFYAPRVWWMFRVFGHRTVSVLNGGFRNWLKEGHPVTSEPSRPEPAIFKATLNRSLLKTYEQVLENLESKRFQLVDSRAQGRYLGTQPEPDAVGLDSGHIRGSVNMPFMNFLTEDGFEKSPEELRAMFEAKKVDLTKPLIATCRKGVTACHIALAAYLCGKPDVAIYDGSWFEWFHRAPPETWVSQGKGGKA
Kind of assay: native rhodanese enzymatic activity counter-screen. Type of assay: biochemical. The protocol: Counter-screening compounds for inhibition of native rhodanese enzymatic activity. Reagent Preparations & Assay Protocol: Reagents were identical to those used in the GroEL/ES-dRho refolding assay described above; however, the assay protocol differed in the sequence of compound addition to the wells. Compounds were pin-transferred after 50 minute incubation for the refolding cycle, but prior to the addition of the thiocyanate enzymatic assay stock. Thus, the refolding reactions were allowed to proceed for 50 min at 37° C. in the absence of test compounds, but the enzymatic activity of the refolded rhodanese reporter enzyme was monitored in the presence of test compounds (inhibitor concentration range during the enzymatic reporter reaction is 100 μM to 46 nM—3-fold dilutions). IC50 values for the rhodanese reporter enzyme were determined as described above. Results presented represent the averages of IC50 values obtained from at least four replicates.
All compounds were counter-screened for inhibiting the enzymatic activity of the native Rho reporter enzyme as per our previously reported procedure. Results presented represent the averages of IC50 values obtained from at least four replicates.

A further assay addresses T2, E. coli GroEL/ES (Escherichia coli, UniProt P0A6F5).
T2 construct: made in house; host or cells: GroEL in NEB 5-alpha E. coli; GroES in E. coli BL21 (DE3)
The assay is described as follows: GroEL/ES-mediated dRho refolding assay. Type of assay: biochemical. The method, then:
Evaluating compounds for inhibition in the GroEL/ES-mediated dRho refolding assay. Reagent preparation: For this assay, five primary reagent stocks were prepared: 1) GroEL/ES-dRho binary complex stock; 2) ATP initiation stock; 3) thiocyanate enzymatic assay stock; 4) formaldehyde quench stock; 5) ferric nitrate reporter stock. Denatured rhodanese (dRho) was prepared by 3-fold dilution of rhodanese (Roche product #R^1756, diluted to 10 mg/mL with H2O) with denaturant buffer (12 M Urea, 50 mM Tris-HCl, pH 7.4, and 10 mM DTT). Rhodanese was completely denatured by incubating at room temperature for >45 min. The binary complex solution was prepared by slowly adding the dRho stock to a stirring stock of concentrated GroEL in modified folding buffer (50 mM Tris-HCl, pH 7.4, 50 mM KCl, 10 mM MgCl2, 5 mM Na2S2O3, and 1 mM DTT). The solution was centrifuged at 16,000×g for 5 minutes, and the supernatant was collected and added to a solution of GroES in modified folding buffer to give final protein concentrations of 100 nM GroEL, 120 nM GroES, and 80 nM dRho. The binary complex stock was prepared immediately prior to use. For the ATP initiation stock, ATP solid was diluted into modified folding buffer to a final concentration of 2.0 mM. The thiocyanate enzymatic assay stock was prepared to contain 70 mM KH2PO4, 80 mM KCN, and 80 mM Na2S2O3 in water. The formaldehyde quench solution contained 30% formaldehyde in water.
Assay Protocol: First, 10 μL aliquots of the GroEL/ES-dRho complex stock were dispensed into clear, flat-bottom 384-well polystyrene plates. […] After incubating for 40 minutes at 37° C. for the refolding cycle, 30 μL of the thiocyanate enzymatic assay stock was added and incubated for 60 min at room temperature for the refolded rhodanese enzymatic reporter reaction. The reporter reaction was quenched by adding 10 μL of the formaldehyde quench stock, and then 40 μL of the ferric nitrate reporter stock was added to quantify the amount of thiocyanate produced during the enzymatic reporter reaction, which is proportional to the amount of dRho refolded by GroEL/ES. After incubating at room temperature for 15 min, the absorbance by Fe(SCN)3 was measured at 460 nm using a Molecular Devices SpectraMax Plus384 microplate reader. A second set of baseline control plates were prepared analogously, but without GroEL/ES-dRho protein binary solution, to correct for possible interference from compound absorbance or turbidity. […] Results presented represent the averages of IC50 values obtained from at least four replicates.
Evaluating compounds for inhibition in the GroEL/ES-mediated dRho refolding assay. All compounds were evaluated for inhibiting E. coli GroEL/ES-mediated refolding of the denatured Rho reporter enzyme as per our previously reported procedure. Results presented represent the averages of IC50 values obtained from at least four replicates.

Setting [1] is: compounds added after refolding, read-out: Native Rho Activity IC50.
Where [2] appears, read: read-out: GroEL/ES-dRho Refolding IC50.

T2 sequence (P0A6F5 2-548): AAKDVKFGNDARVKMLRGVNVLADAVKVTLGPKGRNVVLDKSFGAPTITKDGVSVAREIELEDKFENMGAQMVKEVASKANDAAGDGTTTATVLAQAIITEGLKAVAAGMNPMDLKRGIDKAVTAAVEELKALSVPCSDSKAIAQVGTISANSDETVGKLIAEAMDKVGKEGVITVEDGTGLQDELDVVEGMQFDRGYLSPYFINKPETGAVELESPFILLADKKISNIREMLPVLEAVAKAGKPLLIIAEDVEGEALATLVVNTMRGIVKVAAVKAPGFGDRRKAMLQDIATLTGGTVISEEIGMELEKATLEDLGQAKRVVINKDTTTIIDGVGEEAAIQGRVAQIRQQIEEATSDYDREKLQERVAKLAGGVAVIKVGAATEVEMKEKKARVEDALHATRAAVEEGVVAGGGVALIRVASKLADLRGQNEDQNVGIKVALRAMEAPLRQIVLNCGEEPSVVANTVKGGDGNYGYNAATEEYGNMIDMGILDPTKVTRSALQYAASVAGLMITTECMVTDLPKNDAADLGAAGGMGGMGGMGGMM

As to `CN(C)c1ccc(C(=O)N/N=C/c2ccc(O)c3ncccc23)cc1` [Compound 8, 4-(dimethylamino)-N′-((8-hydroxyquinolin-5-yl)methylene)benzohydrazide], the IC50 on native rhodanese (setting [1]) amounted to 67 µM; against E. coli GroEL/ES it was 7.9 µM.

For `O=C(N/N=C/c1ccc([N+](=O)[O-])o1)c1ccc(NS(=O)(=O)c2ccc(Br)cc2)cc1` [Compound 27, 4-bromo-N-(4-(2-((5-nitrofuran-2-yl)methylene)hydrazine-1-carbonyl)phenyl)benzenesulfonamide], the IC50 was determined as 44 µM on native rhodanese and 59 µM at E. coli GroEL/ES.

On to `O=C(N/N=C/c1ccc(O)c2ncccc12)c1cccc(Oc2ccccc2)c1` [Compound 11, N′-((8-hydroxyquinolin-5-yl)methylene)-3-phenoxybenzohydrazide], for which the IC50 at native rhodanese (setting [1]) was found to be 85 µM; against E. coli GroEL/ES, 7.8 µM.

Regarding `O=C(N/N=C/c1ccc([N+](=O)[O-])o1)c1ccccc1Oc1ccccc1` [Compound 23, N′-((5-nitrofuran-2-yl)methylene)-2-phenoxybenzohydrazide], the IC50 on native rhodanese (setting [1]) came out at 43 µM.

As for `O=[N+]([O-])c1ccc(O)c2ncccc12` [Nitroxoline, reference compound], the IC50 on native rhodanese (setting [1]) was 2 µM; at E. coli GroEL/ES it was 6.4 µM.

For the molecule `COc1ccc(C(=O)N/N=C/c2ccc(O)cc2)cc1` [Compound 35, N′-(4-hydroxybenzylidene)-4-methoxybenzohydrazide], the IC50 on native rhodanese (setting [1]) is > 100 µM; against E. coli GroEL/ES, > 250 µM.

Turning to `O=C(N/N=C/c1ccc(O)c2ncccc12)c1cccs1` [Compound 3, N′-((8-hydroxyquinolin-5-yl)methylene)thiophene-2-carbohydrazide], the figures for the IC50 on native rhodanese (setting [1]) and against E. coli GroEL/ES were 87 µM and 38 µM, respectively.

In the case of `O=C(N/N=C/c1ccc([N+](=O)[O-])o1)c1ccncc1` [Compound 19, N′-((5-nitrofuran-2-yl)methylene)isonicotinohydrazide], the values for the IC50 at native rhodanese (setting [1]) and against E. coli GroEL/ES were 38 µM and 64 µM, respectively.

Turning to `O=C(N/N=C/c1ccccc1)c1ccccc1` [Compound 38, N′-benzylidenebenzohydrazide], the IC50 is > 100 µM on native rhodanese (setting [1]) and > 250 µM against E. coli GroEL/ES.

As for `O=C(N/N=C/c1ccc(O)c2ncccc12)c1ccc(NS(=O)(=O)c2cccs2)cc1` [Compound 13, N-(4-(2-((8-hydroxyquinolin-5-yl)methylene)hydrazine-1-carbonyl)phenyl)thiophene-2-sulfonamide], the IC50 at native rhodanese (setting [1]) is > 100 µM; on E. coli GroEL/ES, 0.81 µM.

In the case of `COc1ccc(C(=O)NN)cc1` [Compound 42, reference compound], the figures for the IC50 at native rhodanese (setting [1]) and against E. coli GroEL/ES were > 100 µM and > 250 µM, respectively.

On to `O=C(N/N=C/c1ccc(O)c2ncccc12)c1ccncc1` [Compound 6, N′-((8-hydroxyquinolin-5-yl)methylene)isonicotinohydrazide], for which the IC50 at native rhodanese (setting [1]) was > 100 µM; on E. coli GroEL/ES it was > 250 µM.

Regarding `O=C(N/N=C/c1ccc(O)c2ncccc12)c1ccccc1Oc1ccccc1` [Compound 10, N′-((8-hydroxyquinolin-5-yl)methylene)-2-phenoxybenzohydrazide], the results for the IC50 at native rhodanese (setting [1]) and on E. coli GroEL/ES were 89 µM and 4.5 µM, respectively.

Take `O=C(N/N=C/c1ccc([N+](=O)[O-])o1)c1ccc(NS(=O)(=O)c2cccs2)cc1` [Compound 26, N-(4-(2-((5-nitrofuran-2-yl)methylene)hydrazine-1-carbonyl)phenyl)thiophene-2-sulfonamide]: the results for the IC50 on native rhodanese (setting [1]) and against E. coli GroEL/ES were 44 µM and 62 µM, respectively.

Turning to `O=C(N/N=C/c1ccc(O)c2ccccc12)c1ccccc1` [Compound 30, N′-((4-hydroxynaphthalen-1-yl)methylene)benzohydrazide], the results for the IC50 on native rhodanese (setting [1]) and at E. coli GroEL/ES were 97 µM and 216 µM, respectively.

Consider `O=C(N/N=C/c1ccc([N+](=O)[O-])o1)c1cccc(Oc2ccccc2)c1` [Compound 24, N′-((5-nitrofuran-2-yl)methylene)-3-phenoxybenzohydrazide], for which the IC50 is 65 µM at native rhodanese (setting [1]) and 50 µM at E. coli GroEL/ES.

Regarding `COc1ccc(C(=O)N/N=C/c2ccc(O)c3ccccc23)cc1` [Compound 29, N′-((4-hydroxynaphthalen-1-yl)methylene)-4-methoxybenzohydrazide], the IC50 at native rhodanese (setting [1]) amounted to 66 µM; on E. coli GroEL/ES, 117 µM.

In the case of `O=C(N/N=C/c1ccc(O)cc1)c1ccccc1` [Compound 36, N′-(4-hydroxybenzylidene)benzohydrazide], the IC50 on native rhodanese (setting [1]) is > 100 µM; against E. coli GroEL/ES it was > 250 µM.

As to `O=Cc1ccc(O)c2ncccc12` [Compound 40, reference compound], the IC50 on native rhodanese (setting [1]) amounted to 18 µM; on E. coli GroEL/ES (setting [2]), 30 µM.

On to `O=C(N/N=C/c1ccc([N+](=O)[O-])o1)c1cccc2ccccc12` [Compound 22, N′-((5-nitrofuran-2-yl)methylene)-1-naphthohydrazide], for which the values for the IC50 at native rhodanese (setting [1]) and at E. coli GroEL/ES were 45 µM and 73 µM, respectively.

As to `CCOc1ccc(S(=O)(=O)Nc2ccc(C(=O)N/N=C/c3ccc(O)c4ncccc34)cc2)cc1` [Compound 15, 4-ethoxy-N-(4-(2-((8-hydroxyquinolin-5-yl)methylene)hydrazine-1-carbonyl)phenyl)benzenesulfonamide], the IC50 on native rhodanese (setting [1]) was > 100 µM; against E. coli GroEL/ES it was 1.4 µM.

Take `O=Cc1ccc([N+](=O)[O-])o1` [Compound 41, reference compound]: the IC50 at native rhodanese (setting [1]) was determined as 32 µM; on E. coli GroEL/ES it was 31 µM.

With `COc1ccc(C(=O)N/N=C/c2ccccc2)cc1` [Compound 37, N′-benzylidene-4-methoxybenzohydrazide], the IC50 on native rhodanese (setting [1]) is > 100 µM; against E. coli GroEL/ES, > 250 µM.

Take `COc1ccc(C(=O)N/N=C/c2cccc3ccccc23)cc1` [Compound 33, 4-methoxy-N′-(naphthalen-1-ylmethylene)benzohydrazide]: the IC50 at native rhodanese (setting [1]) is > 100 µM; at E. coli GroEL/ES, 129 µM.

On to `O=C1CN(/N=C/c2ccc(O)c3ncccc23)C(=O)N1` [Compound 2, 1-(((8-hydroxyquinolin-5-yl)methylene)amino)imidazolidine-2,4-dione], for which the figures for the IC50 on native rhodanese (setting [1]) and on E. coli GroEL/ES were > 100 µM and 86.4 µM, respectively.

Turning to `CCN(CC)S(=O)(=O)c1cccc(C(=O)N/N=C/c2ccc(O)c3ncccc23)c1` [Compound 12, N,N-diethyl-3-(2-((8-hydroxyquinolin-5-yl)methylene)hydrazine-1-carbonyl)benzenesulfonamide], the IC50 is 81 µM on native rhodanese (setting [1]) and 10 µM at E. coli GroEL/ES.

On to `O=C(N/N=C/c1ccc(O)c2ncccc12)c1ccccc1` [Compound 5, N′-((8-hydroxyquinolin-5-yl)methylene)benzohydrazide], for which the results for the IC50 at native rhodanese (setting [1]) and on E. coli GroEL/ES were 95 µM and 176 µM, respectively.

Regarding `O=C(N/N=C/c1ccc([N+](=O)[O-])o1)c1cccs1` [Compound 16, N′-((5-nitrofuran-2-yl)methylene)thiophene-2-carbohydrazide], the IC50 at native rhodanese (setting [1]) is > 100 µM; on E. coli GroEL/ES (setting [2]), 222 µM.

Consider `COc1ccc(C(=O)N/N=C/c2ccc(O)c3ncccc23)cc1` [Compound 1, N′-((8-hydroxyquinolin-5-yl)methylene)-4-methoxybenzohydrazide], for which the IC50 at native rhodanese (setting [1]) amounted to 98 µM.
